These results are taken from US11453683B1, “KRas G12D inhibitors” (Mirati Therapeutics, Inc., priority 2019, dated 2022).

In experiment [1] the target is T1, KRas G12D (Homo sapiens (Human), UniProt P01116, G12D). Put plainly: KRas G12D Surface Plasmon Resonance (SPR) Binding Assay. Particulars: Biacore T200, immobilized biotinylated KRAS protein, 1:1 binding model. The method, then: Briefly, 1 L of 1.05× HBS-Mg buffer (262.5 mM Bioultra Hepes, pH 7.5, 157.5 mM NaCl, 105 mM MgCl2, 0.525 mM TCEP, 0.0305% Brij-35) was prepared and filter sterilized using a 0.22 μm bottle top filter. Approximately 50 mL of 1.05× HBS-Mg buffer was removed and saved for future dilutions. A 50 mL aliquot of DMSO (Sigma Aldrich DMSO Lot. #SHBK2079) was added and continued to stir for 10 minutes, creating the final 1.0× HBS-Mg buffer (250 mM Bioultra Hepes pH 7.5, 150 mM NaCl, 100 mM MgCl2, 0.5mM TCEP, 0.03% Brij-35).
Biacore T200 instrument was primed using 1.0× HBS-Mg buffer before docking a GE Streptavidin (SA) chip and then primed two additional times prior to beginning the immobilization step. All immobilized protein mixtures were created using 3-5mg/mL Biotinylated Avidin-tagged KRAS protein using the following immobilization settings: SA chip type, 1 flow cells per cycle, 720 second contact time, and 5 ul/min flow rate. Normalization of the detector was also performed during the immobilization step using the GE Biallormalize solution.
All compounds were diluted to 10 mM in 100% DMSO prior to being diluted 20× in 1.05× buffer. […] Data evaluation was performed using the Biacore T200 Evaluation software and data fit to 1:1 binding model.
Target sequence in this assay (P01116-2 other isoform, or with tags, fused parts or gaps G12D): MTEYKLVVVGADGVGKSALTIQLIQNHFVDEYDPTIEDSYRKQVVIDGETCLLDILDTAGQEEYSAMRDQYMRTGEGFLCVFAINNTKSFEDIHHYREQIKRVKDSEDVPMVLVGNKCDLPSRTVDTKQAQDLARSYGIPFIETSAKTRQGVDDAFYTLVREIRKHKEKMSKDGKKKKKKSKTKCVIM

For experiment [2], the system named is KRas G12D-mediated phosphorylation of ERK. As to the kind of experiment: Inhibition of KRas G12D-mediated phosphorylation of ERK in AGS cells. Particulars: Homo sapiens; AGS cells expressing G12D, 3 hours, phospho-ERK normalized to GAPDH. The experiment is classed as cell-based. In outline: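 Fixed, methanol-permeabilized; phospho-ERK (Thr202/Tyr204) by in-cell immunofluorescence normalized to GAPDH. Percent of DMSO control, IC50 by 4-parameter fit.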

For experiment [3], the target named is T1, KRas G12D. Put plainly: KRas G12D Binding Assay (TR-FRET displacement). Particulars: TR-FRET displacement of Cy5 labelled tracer, GDP-loaded KRAS G12D, 60 minute incubation at 22° C. The method, then: After a 60 minute incubation at 22° C., the reaction was measured using a PerkinElmer EnVision multimode plate reader via TR-FRET dual wavelength detection, and the percent of control (POC) calculated using a ratiometric emission factor. […] The POC values were fit to a 4-parameter logistic curve and the IC50 value was determined as the concentration where the curve crosses 50 POC.
Target sequence in this assay (P01116 other isoform, or with tags, fused parts or gaps G12D): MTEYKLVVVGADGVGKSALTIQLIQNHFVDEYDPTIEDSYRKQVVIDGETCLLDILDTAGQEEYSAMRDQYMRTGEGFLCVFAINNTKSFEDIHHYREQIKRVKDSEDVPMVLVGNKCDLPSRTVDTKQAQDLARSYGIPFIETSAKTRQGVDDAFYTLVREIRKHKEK
On the technique in general: TR-FRET usually uses a lanthanide donor and a delayed reading to cut background.

As a reminder, the Kd is the concentration at which binding is half-saturated. The term IC50 denotes the concentration that gives 50% inhibition.

Some results are limits rather than exact numbers.

For `CC(C)N1CCC[C@H]1COc1nc(N2C[C@H]3C[C@@H](O)[C@@H](C2)N3)c2cnc(-c3cccc4cccc(Cl)c34)c(F)c2n1` [Example 153, (1R,5R,6R)-3-(7-(8-chloronaphthalen-1-yl)-8-fluoro-2-(((S)-1-isopropylpyrrolidin-2-yl)methoxy)pyrido[4,3-d]pyrimidin-4-yl)-3,8-diazabicyclo[3.2.1]octan-6-ol], at KRas G12D [1], the affinity, expressed as Kd, was 0.0705 µM. Besides, the concentration for half-maximal inhibition (IC50) in experiment [2] was found to be 2.37 µM; at KRas G12D [3], 0.0508 µM.
The like results for `[O-][N+]12CCCC1(COc1nc(N3CC4CCC(C3)N4)c3cnc(-c4cccc5cccc(Cl)c45)c(F)c3n1)CCC2` [Example 60, 7a-(((4-((1R,5S)-3,8-diazabicyclo[3.2.1]octan-3-yl)-7-(8-chloronaphthalen-1-yl)-8-fluoropyrido[4,3-d]pyrimidin-2-yl)oxy)methyl)hexahydropyrrolizine 4(1H)-oxide] were, in that order, above 1000 µM, above 16.7 µM and 1.66 µM.
